Results reported in patent US10470987B2, “Process for stimulating hyaluronic acid synthesis” (TOMCAT INTERNATIONAL LIMITED, priority 2015, dated 2019).

Test system: has-2 expression
Assay: has-2 expression in human skin fibroblasts by real time quantitative PCR, 6 hours incubation
Format: cell-based
Details: 2 μM, vs untreated
Experimental: Human skin fibroblast cells are spread in DMEM medium containing 10% of fetal bovine serum (FBS) and antibiotics (penicillin/streptomycin) and incubated until a 90% confluence is reached. The medium is removed and replaced by fresh medium comprising resveratrol (RSV) or resveratrol oligomers (OR) respectively. Table 1 below indicates the different conditions tested and concentrations used. [table] Human skin fibroblast cells are incubated for 6 hours at 37° C. under 5% CO2. The ARN extraction is made by using the ARN Omega extraction kit. 1 μg of ARN is used and retranscribed into complementary DNA using the ADNc Bio-Rad iScript™ synthesis kit followed by a real time quantitative PCR quantification. The PCR reactions have been carried out using Fast-Start™ DNA Master SYBR Green I real-time PCR kit (Roche Molecular Biochemicals). Each PCR has been carried out in a final volume of 20 μl containing 10 μl of SYBR Green mix 2× (Fast start DNA master SYBR green+Taq DNA polymerase), 2 μl of 10 μM primer mixture (finally 1 μM) and 8 μl of ADNc solution (50 ng). The primers used are described in table 2 below. [table]

Oc1ccc(C=Cc2cc(O)cc(O)c2)cc1 [resveratrol, 3,5,4′-trihydroxystilbene]
increase of has-2 expression by fibroblasts: 18%
induction of has-2 expression by fibroblasts, factor: 1.18
